For one series, the target named is JAK3 (Homo sapiens, UniProt P52333). As to the kind of experiment: Kinase profiling. Format: biochemical.
Another series has as its system IL‐8 secretion. As to the kind of experiment: Cytokine ELISA, IL‐8 secretion in TMD8 cells. Format: cell-based. The following applies: Homo sapiens, TMD8, 16 h, read-out: IC50 IL‐8 secretion.
Series [1] in a line: In vitro metabolism in liver microsomes. The following applies: mouse liver microsomes. It counts as in vitro ADME.
Series [2] is described as follows: In vitro metabolism in liver microsomes. It counts as in vitro ADME. The following applies: human liver microsomes. (In general: Liver microsomes are vesicles of endoplasmic reticulum, rich in cytochrome P450 enzymes.)
The test system of the next series is TMD8 cells. As to the kind of experiment: Cell cytotoxicity assay. Format: cell-based. The settings on record: Homo sapiens, TMD8, 96 h, read-out: IC50 cell proliferation TMD8.
In a further series the target is BTK (Homo sapiens, UniProt Q06187). As to the kind of experiment: Kinase profiling. Format: biochemical.
BTK, sequence (Q06187 whole entry): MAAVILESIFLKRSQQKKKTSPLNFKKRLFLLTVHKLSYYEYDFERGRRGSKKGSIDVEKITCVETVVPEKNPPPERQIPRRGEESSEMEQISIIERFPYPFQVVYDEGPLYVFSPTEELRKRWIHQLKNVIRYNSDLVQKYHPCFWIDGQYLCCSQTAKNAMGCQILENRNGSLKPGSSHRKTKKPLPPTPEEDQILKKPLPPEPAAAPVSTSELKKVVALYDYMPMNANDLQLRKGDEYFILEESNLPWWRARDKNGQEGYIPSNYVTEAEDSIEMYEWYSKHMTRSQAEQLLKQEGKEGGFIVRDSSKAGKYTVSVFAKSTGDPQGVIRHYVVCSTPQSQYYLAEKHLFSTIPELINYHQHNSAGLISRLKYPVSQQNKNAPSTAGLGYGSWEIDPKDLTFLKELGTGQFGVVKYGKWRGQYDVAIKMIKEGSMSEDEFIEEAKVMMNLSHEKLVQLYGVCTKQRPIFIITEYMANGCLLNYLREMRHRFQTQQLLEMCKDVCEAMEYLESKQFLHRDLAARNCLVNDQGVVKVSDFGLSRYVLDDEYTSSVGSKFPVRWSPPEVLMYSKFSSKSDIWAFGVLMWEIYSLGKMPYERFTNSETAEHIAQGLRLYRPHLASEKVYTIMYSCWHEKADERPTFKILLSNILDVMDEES
A further series concerns the target BTK‐WT (Homo sapiens, UniProt Q06187). The experiment in a line: Ki determination with Omnia Tyr peptide kit. It counts as biochemical.

From article PMC7424564 (Pharmacology Research & Perspectives, 2020) come the findings set out here.

Molecules are shown by their SMILES. Bounds are passed on as bounds.

BTK‐WT, sequence (Q06187 whole entry): as above
JAK3, sequence (P52333 whole entry): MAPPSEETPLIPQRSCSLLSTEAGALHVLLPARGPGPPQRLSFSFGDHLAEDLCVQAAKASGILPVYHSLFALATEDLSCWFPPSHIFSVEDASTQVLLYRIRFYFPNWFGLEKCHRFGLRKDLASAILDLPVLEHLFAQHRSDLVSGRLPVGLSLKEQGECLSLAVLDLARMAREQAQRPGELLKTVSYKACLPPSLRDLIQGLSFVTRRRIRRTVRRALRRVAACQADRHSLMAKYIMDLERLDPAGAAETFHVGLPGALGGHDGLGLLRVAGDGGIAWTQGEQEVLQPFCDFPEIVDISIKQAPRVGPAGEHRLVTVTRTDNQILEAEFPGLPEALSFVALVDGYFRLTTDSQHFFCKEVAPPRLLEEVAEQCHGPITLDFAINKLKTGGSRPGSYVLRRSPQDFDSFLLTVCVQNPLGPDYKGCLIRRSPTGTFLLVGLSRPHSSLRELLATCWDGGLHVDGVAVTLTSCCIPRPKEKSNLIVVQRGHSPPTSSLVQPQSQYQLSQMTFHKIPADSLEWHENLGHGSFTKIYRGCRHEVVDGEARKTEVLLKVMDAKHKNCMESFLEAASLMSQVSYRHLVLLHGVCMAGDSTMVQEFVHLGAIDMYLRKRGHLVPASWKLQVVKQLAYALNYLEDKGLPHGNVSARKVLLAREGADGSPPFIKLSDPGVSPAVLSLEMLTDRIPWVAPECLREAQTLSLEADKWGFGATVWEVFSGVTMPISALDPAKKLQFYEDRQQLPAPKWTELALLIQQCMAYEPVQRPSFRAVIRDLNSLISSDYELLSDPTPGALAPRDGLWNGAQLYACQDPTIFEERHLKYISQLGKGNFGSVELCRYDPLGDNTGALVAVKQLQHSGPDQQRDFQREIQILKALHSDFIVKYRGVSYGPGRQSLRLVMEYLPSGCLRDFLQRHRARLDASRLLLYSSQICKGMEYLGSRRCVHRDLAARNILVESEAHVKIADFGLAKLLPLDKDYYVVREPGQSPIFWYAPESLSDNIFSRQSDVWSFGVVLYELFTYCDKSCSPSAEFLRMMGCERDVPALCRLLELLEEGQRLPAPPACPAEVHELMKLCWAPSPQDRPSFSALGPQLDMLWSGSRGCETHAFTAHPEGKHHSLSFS

A word on the Ki: it is a measure of affinity in units of concentration, obtained from inhibition or displacement. Turning to `C=CC(=O)N1CC2CC(n3nc(-c4ccc(C(=O)Nc5ccccn5)cc4)c4c(N)ncnc43)CC2C1` (stereo not drawn) [ZYBT1, 4‐(1‐(2‐acryloyloctahydrocyclopenta[c]pyrrol‐5‐yl)‐4‐amino‐1H‐pyrazolo[3,4‐d]pyrimidin‐3‐yl)‐N‐(pyridin‐2‐yl)benzamide], the IC50 against JAK3 is above 10000 nM; with IL‐8 secretion, 0.2 nM; in the series with TMD8 cells it was 1 nM; on BTK it was 27 nM. Besides, the mClint is on record as 0.46 mL/min/gm liver in series [1] and 1.28 mL/min/gm liver in series [2]. In addition, the “% metabolized” value is recorded as “up to 13%” in series [1] (1 µmol/L, 30 minutes, NADPH) and at most 32% in series [2] (1 µmol/L, 30 minutes, NADPH). Moreover, at BTK‐WT, the affinity corresponds to a Ki of 14 nM.
